Legend:
PTGS2 mRNA = PTGS2 mRNA levels in CD14+ monocytes cultured with HDL+SAA1 (qRT-PCR); format: cell-based, human; conditions: 24 h
Description: Quantitative RT-PCR (qRT-PCR). Total RNA was purified using the Direct-Zol™ RNA MiniPrep kit and total RNA (100 ng) was reverse transcribed into cDNA using the High-Capacity cDNA Reverse Transcription Kit (Applied Biosystems, Foster City, Calif.). Polymerase chain reactions (PCR) were performed on duplicate cDNA samples using TaqMan Universal PCR Master Mix, FAM-MGB dye-labeled Taqman® PTGS2 probe (Assay ID Hs00153133_m1, catalog #4331182), and a 7900 Real Time PCR System running Sequence Detector version 2.4 software, all from Applied Biosystems (Foster City, Calif.). Gene expression was quantified relative to expression of 18S rRNA using the control sample as a calibrator to calculate the difference in Ct values (ΔΔCt) and presented as relative mRNA expression. For quantification of miR-155-5p expression, miRNA present in total RNA (10 ng) was converted to cDNA using the microRNA cDNA Reverse Transcription kit (Applied Biosystems, Foster City, Calif.). Polymerase chain reaction (PCR) was performed on duplicate cDNA samples using TaqMan Universal PCR Master Mix, Taqman® MicroRNA Assay for has-miR-155-5p (Assay ID #002623, catalog #4427975), and a 7900HT Fast Real-Time PCR System running Sequence Detector version 2.4 software (ThermoFisher Scientific, Waltham, Mass.). miR-155-5p expression was quantified relative to expression of U6 snRNA using the control sample as calibrator to calculate the difference in Ct values (ΔΔCt) and presented as relative mRNA expression.
miR-155 Inhibition. CD14+ monocytes were suspended in 4D human monocyte Nucleofector™ solution (Amaxa™ P3 Primary Cell 4D-Nucleofector™ X kit, catalog #V4XP-3024, Lonza, Walkersville, Md.) to a final concentration of 2×10^6 cells/100 […] at room temperature. […] CD14^+ monocytes were plated at a density of 4×10^4 cells/well in a 96-well plate to collect culture media for cytokine quantification and the remaining cells were plated in a 24-well plate to isolate total RNA for qRT-PCR. After 72 h, cytokine secretion was quantified by ELISA and mRNA levels were quantified by qRT-PCR.

THP-1 monocytes = experiment: Cytokine secretion by THP-1 monocytes stimulated with endogenous SAA-high HDL; format: cell-based, human; conditions: pre-treated 1 h; for ability of endogenous SAA-high HDL to induce cytokine secretion: SAA-high HDL 24 h
Description: HDL Isolation and Analysis. HDL was isolated from plasma by size-exclusion chromatography using two Superose 6 columns in series on an Akta FPLC system (GE Healthcare Life Sciences, Pittsburgh, Pa.), as previously described. FPLC fractions were assayed for cholesterol content (Cholesterol E, catalog #996021611, FUJIFILM Wako Diagnostics USA, Mountain View, Calif.) to identify HDL fractions, which were pooled and concentrated using a 10-kDa exclusion filter (Amicon Ultra Centrifuge Filters, Millipore, Darmstadt, Germany). The content of SAA in purified HDL was quantified using the human SAA ELISA kit, while APOA1 was quantified using the human APOA1 ELISA development kit (Mabtech, Nacka Strand, Sweden). THP-1 monocytes (American Type Culture Collection, Manassas, Va.) were treated with HDL from SAA-high asthmatics (n=16), as well as HDL from asthmatics with the lowest SAA levels (n=16), and the quantity of […], IL-6, TNF-α, and IL-10 secreted into culture medium over 24 h was assayed using Human DuoSet ELISA kits (R&D Systems, Minneapolis, Minn.) and data were acquired using a SpectraMax M2 spectrophotometer (Molecular Devices, San Jose, Calif.).
Stimulation of THP-1 monocytes with endogenous HDL from SAA-high asthmatics and suppression of cytokine secretion were further studied. HDL (4 μg of protein/ml) isolated from plasma from a SAA-high asthmatic (SAA-high HDL) and from a healthy non-asthmatic subject (Normal HDL) were used to stimulate THP-1 monocytes for 24 h. THP-1 monocytes were pre-treated with the FPR2 antagonist, WRW4 or water (40 μM) as the vehicle control, or A438079 or DMSO (10 μM) as the vehicle control, for 1 h prior to stimulation with normal or SAA-high HDL for 24 h. One-way ANOVA with Sidak's multiple comparisons test. ****P<0.0001.
HDL ([…] of protein/ml) isolated from plasma from a SAA-high asthmatic (SAA-high HDL) and from a healthy non-asthmatic subject (Normal HDL) were used to stimulate THP-1 monocytes for 24 h. THP-1 monocytes were pre-treated with BAY-11-7082 ([…] (1 μM) or DMSO (10 μM) as the vehicle control for 1 h, as indicated, prior to stimulation with normal or SAA-high HDL for 24 h. One-way ANOVA with Sidak's multiple comparisons test. ****P<0.0001.
HDL (4 μg of protein/ml) isolated from plasma from a SAA-high asthmatic (SAA-high HDL) and from a healthy non-asthmatic subject (Normal HDL) were used to stimulate THP-1 monocytes for 24 h. A. THP-1 monocytes were pre-treated with celecoxib or DMSO (0.01 μM) as the vehicle control for 1 h, as indicated, prior to stimulation with normal or SAA-high HDL for 24 h. One-way ANOVA with Sidak's multiple comparisons test. ****P<0.0001.

[1] = A438079 10 μM, SAA-high HDL 4 μg of protein/ml 24 h

Compound: Clc1cccc(-c2nnnn2Cc2cccnc2)c1Cl [A438079]
- HDL+SAA1-mediated increases in PTGS2 mRNA (PTGS2 mRNA; A438079 10 μM): attenuated
- IL-1β secretion induced by endogenous SAA-high HDL (THP-1 monocytes; [1]): inhibited
- IL-6 secretion induced by endogenous SAA-high HDL (THP-1 monocytes; [1]): inhibited
- TNF-α secretion induced by endogenous SAA-high HDL (THP-1 monocytes; [1]): inhibited

Compound: Cc1ccc(S(=O)(=O)/C=C/C#N)cc1 [BAY 11-7082]
- HDL+SAA1-mediated increases in PTGS2 mRNA (PTGS2 mRNA; BAY-11-7082 10 μM): prevented
- ability of endogenous SAA-high HDL to induce cytokine secretion (THP-1 monocytes; BAY-11-7082 10 μM): abrogate

Compound: NC(=O)Nc1sc(-c2ccc(F)cc2)cc1C(N)=O [TPCA1]
- HDL+SAA1-mediated increases in PTGS2 mRNA (PTGS2 mRNA; TPCA-1 1 μM): prevented
- ability of endogenous SAA-high HDL to induce cytokine secretion (THP-1 monocytes; TPCA-1 1 μM): abrogate

From patent US20230017266A1, “Cyclooxygenase-2 Inhibition for the Treatment of SAA-high Asthma” (THE USA, AS REPRESENTED BY THE SECRETARY, DEPT. OF HEALTH …, priority 2019, published 2023)
